Results reported in the supplement of paper PMC12137928.
Counter-ions that a name gives are not always drawn.

Tested on: HCT116
Settings: 72 h
Procedure, shortened: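 IC50 and maximal efficacy were derived from four-parameter Hill curve fits. The underlying CellTiter-Glo luminescence was scaled so that vehicle equals 0% and positive control equals -100%, and was then pattern-corrected. HCT116 cells had been seeded in 1536-well plates at 250 per well.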

SMILES | IC50 cell viability (ICRF193 0 nM) [µM] | IC50 cell viability (ICRF193 200 nM) [µM]
CC(=O)OCC(COC(C)=O)OC(C)=O [Triacetin] | > 45.8 | > 45.8
CC1(C)O[C@@H]2C[C@H]3[C@@H]4CCC5=CC(=O)C=C[C@]5(C)[C@@]4(F)[C@@H](O)C[C@]3(C)[C@]2(C(=O)CO)O1 [Triamcinolone acetonide] | > 45.8 | > 45.8
CC(=O)OCC(=O)[C@@]1(O)[C@H](OC(C)=O)C[C@H]2[C@@H]3CCC4=CC(=O)C=C[C@]4(C)[C@@]3(F)[C@@H](O)C[C@@]21C [Triamcinolone diacetate] | > 45.8 | > 45.8
C[C@]12C=CC(=O)C=C1CC[C@H]1[C@@H]3C[C@@H](O)[C@](O)(C(=O)CO)[C@@]3(C)C[C@H](O)[C@@]12F [Triamcinolone] | > 45.8 | > 45.8
O=C(Nc1ccc(Br)cc1)c1cc(Br)cc(Br)c1O [Tribromsalan] | > 45.8 | > 45.8
CCCCCCCC(=O)OCC(COC(=O)CCCCCCC)OC(=O)CCCCCCC [Tricaprylin] | > 45.8 | > 45.8
COP(=O)(OC)C(O)C(Cl)(Cl)Cl (stereo not drawn) [Trichlorfon] | > 45.8 | > 45.8
NS(=O)(=O)c1cc2c(cc1Cl)NC(C(Cl)Cl)NS2(=O)=O (stereo not drawn) [Trichlormethiazide] | > 45.8 | > 45.8
O=C(O)C(Cl)(Cl)Cl [Trichloroacetic acid] | > 45.8 | > 45.8
OCCN(CCO)CCO [Triethanolamine] | > 45.8 | > 45.8
NCCNCCNCCN [Triethylenetetramine] | > 45.8 | > 45.8
C[C@]12CC[C@H]3[C@@H](CC[C@@]45O[C@@H]4C(O)=C(C#N)C[C@]35C)[C@@H]1CC[C@@H]2O [Trilostane] | > 45.8 | > 45.8
COc1ccc(CN2CCNCC2)c(OC)c1OC [Trimetazidine dihydrochloride] | > 45.8 | > 45.8
CN1C(=O)OC(C)(C)C1=O [Trimethadione] | > 45.8 | > 45.8
COc1cc(C(=O)NCc2ccc(OCCN(C)C)cc2)cc(OC)c1OC [Trimethobenzamide hydrochloride] | > 45.8 | > 45.8
COc1cc(CC2NCCc3cc(O)c(O)cc32)cc(OC)c1OC (stereo not drawn) [Trimethoquinol] | > 45.8 | > 45.8
CC(CN(C)C)CN1c2ccccc2CCc2ccccc21 (stereo not drawn) [Trimipramine maleate] | > 45.8 | > 45.8
Cc1cc2cc3c(C)cc(=O)oc3c(C)c2o1 [Trioxsalen] | > 45.8 | > 45.8
CN(C)CCN(Cc1ccccc1)c1ccccn1 [Tripelennamine citrate] | > 45.8 | > 45.8
Cc1ccc(/C(=C\CN2CCCC2)c2ccccn2)cc1 [Triprolidine] | > 45.8 | > 45.8
CC(C)C[C@H](NC(=O)[C@@H](Cc1c[nH]c2ccccc12)NC(=O)[C@H](Cc1ccc(O)cc1)NC(=O)[C@H](CO)NC(=O)[C@H](Cc1c[nH]c2ccccc12)NC(=O)[C@H](Cc1c[nH]cn1)NC(=O)[C@@H]1CCC(=O)N1)C(=O)N[C@@H](CCCNC(=N)N)C(=O)N1CCC[C@H]1C(=O)NCC(N)=O [Triptorelin] | > 45.8 | > 45.8

SMILES | IC50 cell viability (ICRF193 0 nM) [µM] | IC50 cell viability (ICRF193 200 nM) [µM]
C[Si](C)(C)O[Si](C)(C)O[Si](C)(C)C [Trisiloxane, octamethyl-] | > 45.8 | > 45.8
Cc1c(C)c2c(c(C)c1O)CCC(C)(COc1ccc(CC3SC(=O)NC3=O)cc1)O2 (stereo not drawn) [Troglitazone] | > 45.8 | > 45.8
NC(CO)(CO)CO [Tromethamine] | > 45.8 | > 45.8
CCN(Cc1ccncc1)C(=O)C(CO)c1ccccc1 (stereo not drawn) [Tropicamide] | > 45.8 | > 45.8
CN1[C@@H]2CC[C@H]1C[C@@H](OC(=O)c1c[nH]c3ccccc13)C2 [Tropisetron] | > 45.8 | > 45.8
O=C(O[C@H]1C[C@H]2CC[C@@H](C1)[N+]21CCCC1)C(O)(c1ccccc1)c1ccccc1 [Trospium chloride] | > 45.8 | > 45.8
COc1cc(C(=O)NC2CCCNC2)cc(OC)c1OC (stereo not drawn) [Troxipide] | > 45.8 | > 45.8
CC(C)(C)NCC(O)c1ccccc1Cl (stereo not drawn) [Tulobuterol hydrochloride] | > 45.8 | > 45.8
OC(c1ccccc1)(c1ccccc1)C12CC[N+](CCOCc3ccccc3)(CC1)CC2 [Umeclidinium bromide] | > 45.8 | > 45.8
Oc1ncc(N(CCCl)CCCl)c(O)n1 [Uracil mustard] | > 45.8 | > 45.8
CC(=O)OC[C@H]1O[C@@H](n2ccc(=O)[nH]c2=O)[C@H](OC(C)=O)[C@@H]1OC(C)=O [Uridine triacetate] | > 45.8 | > 45.8
C[C@H](CCC(=O)O)[C@H]1CC[C@H]2[C@@H]3[C@@H](O)C[C@@H]4C[C@H](O)CC[C@]4(C)[C@H]3CC[C@]12C [Ursodiol] | > 45.8 | > 45.8
NCCC[C@H](N)CC(=O)N[C@H]1CNC(=O)[C@H]([C@H]2C[C@H](O)NC(N)=N2)NC(=O)/C(=C/NC(N)=O)NC(=O)[C@H](CO)NC(=O)[C@H](CO)NC1=O [VIOMYCIN SULFATE] | > 45.8 | > 45.8
CC(C)[C@H](N)C(=O)OCCOCn1cnc2c(=O)nc(N)[nH]c21 [Valaciclovir] | > 45.8 | > 45.8
Cc1onc(-c2ccccc2)c1-c1ccc(S(N)(=O)=O)cc1 [Valdecoxib] | > 45.8 | > 45.8
CC(C)[C@H](N)C(=O)OCC(CO)OCn1cnc2c(=O)[nH]c(N)nc21 (stereo partly drawn) [Valganciclovir·HCl] | > 45.8 | > 45.8
CCCC(CCC)C(=O)O [Valproic acid sodium salt] | > 45.8 | > 45.8
COc1cc2/c(=N/c3ccc(Br)cc3F)nc[nH]c2cc1OCC1CCN(C)CC1 [Vandetanib] | > 45.8 | > 45.8
CCCc1nc(C)c2c(=O)nc(-c3cc(S(=O)(=O)N4CCN(CC)CC4)ccc3OCC)[nH]n12 [Vardenafil] | > 45.8 | > 45.8
CCCC[C@@H](O)/C=C(C)/C=C/C=C/C(=O)N1CCCC1=O [Variotin] | > 45.8 | > 45.8

The next lines start with the values.

IC50 cell viability (ICRF193 0 nM) [µM] | IC50 cell viability (ICRF193 200 nM) [µM] | SMILES
> 45.8 | > 45.8 | CCOc1cc(OCC)c(C(=O)CCC(=O)O)cc1OCC [Trepibutone]
> 45.8 | > 45.8 | CC(C)(C)CC(=O)OCC(=O)[C@@]12OC(C)(C)O[C@@H]1C[C@H]1[C@@H]3CCC4=CC(=O)C=C[C@]4(C)[C@@]3(F)[C@@H](O)C[C@@]12C [Triamcinolone hexacetonide]
> 45.8 | > 45.8 | CC[N+](CC)(CC)CCC(O)(c1ccccc1)C1CCCCC1 (stereo not drawn) [Tridihexethyl chloride]
> 45.8 | > 45.8 | OCCOCCOCCO [Triethylene glycol]
> 45.8 | > 45.8 | OC(CCN1CCCCC1)(c1ccccc1)C1CCCCC1 (stereo not drawn) [Trihexyphenidyl hydrochloride]
> 45.8 | > 45.8 | CC(CN(C)C)CN1c2ccccc2Sc2ccccc21 (stereo not drawn) [Trimeprazine tartrate]
> 45.8 | > 45.8 | COc1cc(Cc2cnc(N)nc2N)cc(OC)c1OC [Trimethoprim]
> 45.8 | > 45.8 | NS(=O)(=O)c1cc(C(=O)NN2C[C@@H]3[C@H]4CC[C@H](C4)[C@@H]3C2)ccc1Cl [Tripamide]
> 45.8 | > 45.8 | CO[C@H]1C[C@H](O[C@H]2[C@H](C)[C@@H](O[C@@H]3O[C@H](C)C[C@H](N(C)C)[C@H]3OC(C)=O)[C@@H](C)C[C@@]3(CO3)C(=O)[C@H](C)[C@@H](OC(C)=O)[C@@H](C)[C@@H](C)OC(=O)[C@@H]2C)O[C@@H](C)[C@@H]1OC(C)=O [Troleandomycin]
> 45.8 | > 45.8 | Nc1ccn([C@@H]2CO[C@H](CO)O2)c(=O)n1 [Troxacitabine]
> 45.8 | > 45.8 | CC(C)C[C@H](NC(=O)[C@@H](O)[C@H](N)Cc1ccccc1)C(=O)O [Ubenimex]
> 45.8 | > 45.8 | O=c1cc[nH]c(=O)[nH]1 [Uracil]
> 45.8 | > 45.8 | COc1ccccc1N1CCN(CCCNc2cc(=O)n(C)c(=O)n2C)CC1 [Urapidil hydrochloride]
> 45.8 | > 45.8 | CCCCC(=O)N(Cc1ccc(-c2ccccc2-c2nnn[nH]2)cc1)[C@H](C(=O)O)C(C)C [VALSARTAN]
> 45.8 | > 45.8 | O=C(O)C[C@@H]1CC[C@H](NC(=O)Cc2cccs2)B(O)O1 [Vaborbactam]
> 45.8 | > 45.8 | COc1cc2c(cc1OC)[C@H]1C[C@@H](OC(=O)[C@@H](N)C(C)C)[C@H](CC(C)C)CN1CC2 [Valbenazine]
> 45.8 | > 45.8 | CN[C@H](CC(C)C)C(=O)N[C@H]1C(=O)N[C@@H](CC(N)=O)C(=O)N[C@H]2C(=O)N[C@H]3C(=O)N[C@H](C(=O)N[C@H](C(=O)O)c4cc(O)cc(O)c4-c4cc3ccc4O)[C@H](O)c3ccc(c(Cl)c3)Oc3cc2cc(c3O[C@@H]2O[C@H](CO)[C@@H](O)[C@H](O)[C@H]2O[C@H]2C[C@](C)(N)[C@H](O)[C@H](C)O2)Oc2ccc(cc2Cl)[C@H]1O [Vancomycin hydrochloride]
> 45.8 | > 45.8 | O=C(O)CC/C=C\CC[C@@H]1[C@@H](N2CCCCC2)[C@@H](O)C[C@@H]1OCc1ccc(-c2ccccc2)cc1 [Vapiprost hydrochloride]
